{
  "source": "patent USRE47761E1",
  "about": "“Anti-axl antibodies and methods of use” (Genentech, Inc., priority 2010, dated 2019)",
  "key": {"[1]": {"system": "A549 xenograft", "settings": "for reduction in tumor growth as a single agent: A549, FIG. 9A, erlotinib 100 mg/kg/day oral gavage", "protocol": "(§1) Mice were removed from the study when their tumor size reached 800 mm^3, and the animals remaining in each group (% remaining) were plotted. C. […] 12A11 and anti-VEGF was administrated IP at 30 mg/kg and 1 mg/kg, respectively, twice a week, starting when the mean tumor size reached 100 mm^3 (day 0). […] Cell lysates from tumors were analyzed by Western blot for Axl expression. […] Tumors from mice treated as above in D were excised at 0 and 72 hr post dosing and tumor vasculature was visualized by staining with MECA32 immunohistochemistry and quantified by image analysis (expressed as microns square).\nAll studies were conducted in accordance with the “Guide for the Care and Use of Laboratory Animals” (NIH), and approved by the Institutional Animal Care and Used Committee (IACUC). A total of 5×10^6 (A549) or 10^7 cells in matrigel (MDA-MB-231) were implanted subcutaneously into right flank of nude (A549) or SCID mice (MDA-MB-231), respectively. When the average tumor sized reached 100 mm^3, mice were randomized and divided into different treatment groups (n=10 for each group). Anti-Axl or control IgG1 antibodies were at administrated at 10-30 mg/kg, anti-VEGF at 1-2 mg/kg, via intraperitoneal injection (IP), twice weekly. Erlotinib was administrated by oral gavage at 100 mg/kg/day. Paclitaxel and carboplatin were administrated subcutaneously at 6.25 mg/kg/day for 5 days, and 100 mg/kg for a single dose, respectively, at the beginning of the treatment. Statistic analyses were performed using Anova two-way for comparison of tumor growth in different treatment groups."}, "[2]": {"system": "MDA-MB-231 breast cancer cells", "experiment": "MDA-MB-231 metastasis after tail vein injection (bioluminescence)", "format": "in vivo, SCID mice", "protocol": "A. Bioluminescence imaging 4 weeks after tail vein injection of tumor cells. Mice were injected intraperitoneally (i.p.) with 200 μL of 25 mg/ml D-luciferin (Invitrogen) in PBS and were anesthetized during imaging using isoflurane via nose cone. Bioluminescence images were acquired on the Photon Imager (Biospace Lab, Paris, France) that has an intensified charge-coupled device camera. B. H & E staining of the tibia sections.\nFor metastasis studies, 5×10^5 MDA-MB-231 cells stably transfected with a luciferase reporter gene (Li et al, 2009) were implanted into SCID mice via tail vein injection. Metastasis of tumor cells to various organs was monitor by bioluminescence detection as described (Li et al, 2009)."}, "[3]": {"system": "tumor vasculature", "experiment": "Intratumoral vascular density (MECA32) in A549 xenograft tumors", "format": "in vivo, mice", "protocol": "as §1\n(§2) Tumor samples were stained with MECA32, a pan endothelial cell marker. Images were acquired by the Ariol SL-50 automated slide scanning platform (Genetix Ltd.; Hampshire, UK) at 100× final magnification. Tumor-specific areas were exported for analysis in the Metamorph software package (MDS Analytical Technologies; Ontario, Canada) as individual 8-bit images. The brown DAB-specific staining was isolated from the Hematoxylin counterstain using a blue-normalization algorithm as described (Brey et al, 2003). […] Area measurements were recorded for individual vessels, as well as the tumor and non-tumor areas in each image. Raw values based on image analysis were analyzed using the JMP 8.0 software (SAS Institute, Inc. North Carolina, USA). […]"}, "[4]": {"system": "tumor-associated macrophages", "experiment": "Cytokine/chemokine secretion from tumor-associated macrophages of MDA-MB-231 xenografts", "format": "in vivo, mice", "settings": "MDA-MB-231 tumors treated one week, 20 mg/kg, versus control antibody", "protocol": "(§3) Cell lysates from tumors were used in Western blot analysis for Axl expression. […] F. Axl is highly expressed in infiltrating macrophages of primary human breast cancer. Immunohistochemistry was used to examine 79 primary tumors. 21% of these tumors express high levels of Axl in the infiltrating macrophages. Macrophages were identified by staining with anti-CD68, and expression of Axl on macrophages was determined by anti-Axl/CD68 dual IHC. Serial sections were used. […] Tumor associated macrophages were isolated by sorting for F4/80 positive cells and cultured overnight. Cytokines and chemokines secreted into the medium were measured using the Bio-Plea mouse cytokine assay kit.\nTumors were dissected, chopped into small pieces and incubated in RPMI1640 medium with 2.5% FBS, 0.2 units/ml Liberase Blendzymes II and 5 units/ml DNaseI, (Roche). Tumor cells were disassociated using MACS Dissociator (Miltenyi Biotec) and maintained for 20 minutes at room temperature. EDTA (final concentration 0.002%) was added to stop the reaction. Single cell suspensions were prepared, and red blood cells were removed using RBC lysis buffer (eBioscience). […] Cultured media was collected and the levels of cytokines and chemokines were determined using Bio-Plex mouse cytokine assays (Bio-Rad) according to manufacturer's instructions."}, "[5]": {"system": "cynomolgus Axl", "experiment": "Cross reaction ELISA, cynomolgus Axl", "format": "binding", "protocol": "(§4) A-B. Affinity measurement of YW327.6S2 using BIAcore. Association rates (kon) and dissociation rates (koff) were calculated using the one-to-one Langmuir binding model. The equilibrium dissociation constant (Kd) was derived as the […]. C. […] Plates were coated with anti-human IgG Fc, and then incubated with human Axl, Mer, Tyro3 Fcs, mouse or cynomolgus AxlFcs. After washing, isotype control antibody or YW327.6S2 was added and followed by HRP conjugated anti-human IgG. […] FIG. 7D: ELISA. Plates were coated with anti-human IgG Fc and incubated with human Axl-Fc. After washing, Gas6 was added with or without antibodies. Binding of Gas6 was detected by biotylated anti-Gas6 antibody and streptavidin-HRP conjugate. FIG. 7E: FACS. […] Binding of Gas6 to the cell surface was detected by biotylated anti-Gas6 antibody and streptavidin-PE conjugate. […] Phosphorylated Axl was measured by ELISA (upper panel), and phosphorylated Akt by Western Blotting analysis (lower panel). […] Cell viability was measured by CellTiter Glo assay.\nELISA assays were performed as follows: goat anti-human IgG Fc coated plates were blocking with 0.5% BSA, PBS, 0.05% Tween 20 (PBST). […] Secreted Ang-2 and DKK3 was measured using R&D ELISA kit, according to the manufacturer's instruction. Axl expression on cell surface was determined by FACS using standard techniques. […] Samples were analyzed on BD FACScalibur Flow Cytometer."}, "[6]": {"system": "A549 xenograft tumors", "experiment": "Cleaved caspase 3 and Ki67 IHC of A549 xenograft tumors", "format": "in vivo, mice", "settings": "A549 tumors treated two weeks, versus control", "protocol": "B. Kaplan-Meier curve of various treatment groups. […] C. 12A11 enhances the effect of anti-VEGF.\nXenograft tumor samples were fixed in 10% neutral buffered formalin, processed, embedded in paraffin, and sectioned at 4 μm. Thin sections were then treated with primary antibodies for Ki67, cleaved caspase 3 and MECA32, followed by biotinylated secondary antibodies and the DAB chromagen."}, "[7]": {"system": "MDA-MB-231 xenograft", "experiment": "MDA-MB-231 xenograft tumor growth", "format": "in vivo, SCID mice"}, "[8]": {"system": "tumor vasculature", "experiment": "Intra-tumoral vascular density (MECA32) in MDA-MB-231 xenograft tumors", "format": "in vivo, SCID mice", "settings": "MDA-MB-231 tumors", "protocol": "as §3\nas §2, with “images.” for “images. The brown DAB-specific staining was isolated from the Hematoxylin counterstain using a blue-normalization algorithm as described (Brey et al, 2003).”"}, "[9]": {"system": "Akt", "experiment": "Gas6-induced Akt phosphorylation in H1299 cells (Western blotting)", "format": "cell-based, human", "settings": "pre-incubated 4 hrs, Gas6 30 minutes", "protocol": "as §4"}, "[10]": {"biological_target": "T1, human Axl ECD-His protein (human, UniProt P30530 26-451)", "T1 construct": "also called Hu Axl; not shown: His tag", "T1 sequence (P30530 other isoform, or with tags, fused parts or gaps)": "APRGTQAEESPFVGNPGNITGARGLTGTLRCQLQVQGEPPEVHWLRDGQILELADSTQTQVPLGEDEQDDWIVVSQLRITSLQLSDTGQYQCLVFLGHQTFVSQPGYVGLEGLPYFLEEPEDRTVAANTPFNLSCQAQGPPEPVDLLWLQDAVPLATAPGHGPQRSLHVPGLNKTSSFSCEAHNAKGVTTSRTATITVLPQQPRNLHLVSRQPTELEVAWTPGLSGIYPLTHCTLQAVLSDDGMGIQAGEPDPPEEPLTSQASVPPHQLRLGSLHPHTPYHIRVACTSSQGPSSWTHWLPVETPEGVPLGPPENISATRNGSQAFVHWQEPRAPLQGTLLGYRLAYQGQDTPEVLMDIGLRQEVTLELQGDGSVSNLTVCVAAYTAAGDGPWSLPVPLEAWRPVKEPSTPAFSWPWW", "experiment": "SPR (BIAcore-3000); anti-Axl human IgG captured by anti-human IgG, human Axl ECD-His injected"}},
  "note": "“Also recorded” adds a separate entry of the source.",
  "data": [
    {"molecule": "C#Cc1cccc(Nc2ncnc3cc(OCCOC)c(OCCOC)cc23)c1", "note": "[erlotinib, reference compound]", "values": [
      {"measurement": "reduction in tumor growth as a single agent", "setting": "[1]", "result": 30, "unit": "%"}
    ]},
    {"molecule": "YW327.6S2: Affinity matured phage-derived human anti-Axl monoclonal antibody, from clone YW327.6", "values": [
      {"measurement": "reduction in tumor growth as a single agent", "setting": "[1]", "result": 30, "unit": "%"},
      {"measurement": "tumor growth inhibition by single agent", "setting": "[1]; A549, YW327.6S2 10 mg/kg or anti-VEGF 1 mg/kg IP twice a week", "result": 30, "unit": "%"},
      {"measurement": "duration of tumor stasis after treatment cessation", "setting": "[1]; A549, co-administration with anti-VEGF", "result": "at least 4 weeks"},
      {"measurement": "effect on the anti-tumor effect of anti-VEGF", "setting": "[1]; A549, combination with anti-VEGF 1 mg/kg", "result": "enhances"},
      {"measurement": "tumor re-growth from last dose to day 85", "setting": "[1]; A549, in combination with anti-VEGF", "result": "no tumor re-growth"},
      {"measurement": "survival at end of experiment (Kaplan-Meier, tumor size 800 mm^3 cutoff)", "setting": "[1]; A549, in combination with anti-VEGF, day 85", "result": "survival of all the animals"},
      {"measurement": "delay of tumor growth compared to a single agent", "setting": "[1]; A549, in combination with anti-VEGF, dosed 60 days, followed to day 85", "result": "significantly delayed tumor growth"},
      {"measurement": "reduction of tumor growth rate in combination with erlotinib", "setting": "[1]; mouse, in vivo", "result": "more than 50%"},
      {"measurement": "tumor growth inhibition by the combination treatment", "setting": "[1]; mouse, in vivo", "result": 60, "unit": "%"},
      {"measurement": "sites detected by bioluminescence, total for the entire group", "setting": "[2]; four weeks after injection, control group total 18", "result": 7},
      {"measurement": "metastasis of MDA-MB-231 cells (sites detected by bioluminescence), in words", "setting": "[2]; versus control antibody", "result": "significantly reduced; also recorded: reduces"},
      {"measurement": "intratumoral vascular density, antibody alone", "setting": "[3]", "result": "did not significantly reduced"},
      {"measurement": "intratumoral vascular density, combination with anti-VEGF", "setting": "[3]", "result": "significant decrease; also recorded: enhances the effect of anti-VEGF in reducing intra-tumoral vascular density"},
      {"measurement": "inflammatory cytokines and chemokines produced by TAMs", "setting": "[4]", "result": "much lower levels; also recorded: inhibits"},
      {"measurement": "binding to cynomolgus Axl", "setting": "[5]", "result": "binds; also recorded: cross reacts"},
      {"measurement": "Ki67 positive nuclei", "setting": "[6]", "result": "no significant difference"},
      {"measurement": "cleaved caspase 3 (CC3), apoptosis", "setting": "[6]", "result": "increased; also recorded: induces apoptosis"},
      {"measurement": "reduction of tumor growth, antibody alone", "setting": "[7]; 20 mg/kg IP twice a week", "result": 25, "unit": "%"},
      {"measurement": "reduction in tumor growth, combination therapy with anti-VEGF", "setting": "[7]; 20 mg/kg with anti-VEGF 2 mg/kg", "result": 50, "unit": "%"},
      {"measurement": "intra-tumoral vascular density, single antibody versus control", "setting": "[8]", "result": "significantly reduced; also recorded: reduces"},
      {"measurement": "tumor associated vascular density, combination with anti-VEGF", "setting": "[8]", "result": "further reduction"},
      {"measurement": "Gas6-induced phosphorylation of Akt", "setting": "[9]", "result": "blocks"}
    ]},
    {"molecule": "YW327.6S2 (antibody, V domains shown) VH: EVQLVESGGGLVQPGGSLRLSCAASGFSLSGSWIHWVRQAPGKGLEWVGWINPYRGYAYYADSVKGRFTISADTSKNTAYLQMNSLRAEDTAVYYCAREYSGWGGSSVGYAMDYWGQGTLV VL: DIQMTQSPSSLSASVGDRVTITCRASQDVSTAVAWYQQKPGKAPKLLIYSASFLYSGVPSRFSGSGSGTDFTLTISSLQPEDFATYYCQQSYTTPPTFGQGTKVEIKR", "values": [
      {"measurement": "Kd", "setting": "[10]", "result": "~1", "unit": "nM"}
    ]}
  ]
}
